Measured values taken from PubChem BioAssay (NCI).
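48-hour exposure; five concentrations; linearly interpolated endpoints. TGI: concentration producing complete growth inhibition.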

Experiments:
Assay in all cases: growth of human tumour cells (NCI), 48 h
A549 NSCLC = system: A549 NSCLC
CCRF-CEM leukemia = system: CCRF-CEM leukemia
EKVX NSCLC = system: EKVX NSCLC
HCT-116 colon = system: HCT-116 colon
HOP-62 NSCLC = system: HOP-62 NSCLC
MDA-MB-435 = system: MDA-MB-435
MDA-N = system: MDA-N
SF-539 CNS = system: SF-539 CNS
SNB-19 CNS = system: SNB-19 CNS
TK-10 renal = system: TK-10 renal

| Structure (SMILES) | TGI (A549 NSCLC) | TGI (CCRF-CEM leukemia) | TGI (EKVX NSCLC) | TGI (HCT-116 colon) | TGI (HOP-62 NSCLC) | TGI (MDA-MB-435) | TGI (MDA-N) | TGI (SF-539 CNS) | TGI (SNB-19 CNS) | TGI (TK-10 renal) |
| --- | --- | --- | --- | --- | --- | --- | --- | --- | --- | --- |
| CCn1c(=O)c2c3ccc(O)cc3[nH]c2c2ccc(O)cc21 | > 100 µM | > 100 µM | > 100 µM | > 100 µM | > 100 µM | > 100 µM | > 100 µM | > 100 µM | > 100 µM | > 100 µM |
| CC1=C(C(=O)NNC(=O)c2ccccc2O)CC(C(=O)NNC(=O)c2ccccc2O)=C(C)N1 | > 100 µM | > 35.5 µM | > 72.7 µM | > 51.5 µM | > 86.2 µM | > 100 µM | > 100 µM | 41.8 µM | > 100 µM | > 100 µM |
| Cc1c2c(n3c(nc4ccccc43)c1C#N)NCC2 | > 10 µM | > 10 µM | > 10 µM | > 10 µM | > 10 µM | > 10 µM | > 10 µM | > 10 µM | > 10 µM | > 10 µM |
| CCOC(=O)C12CCC(c3c(C)cccc3C)(O1)C(C(=O)OC)=C2C(=O)OC (stereo not given) | > 10 µM | > 10 µM | > 10 µM | > 10 µM | > 10 µM | 2.27 µM | 1.98 µM | 4.76 µM | > 10 µM | > 10 µM |
| COc1ccc2nc3c([N+](=O)[O-])ccc4c3c(c2c1)N=CN4CCN(C)C | 19.2 µM | 9.76 µM | 18 µM | 13.6 µM | 15.3 µM | 25.9 µM | 16.9 µM | 15.8 µM | 28 µM | 21.1 µM |
| CCOC(OCC)[C@@H]1C[C@@H]2N(O[C@H](OC3CCCC3(c3ccccc3)c3ccccc3)[C@H](OC(C)=O)[C@@]2(CC)Cc2ccc(OC)c(OC)c2)O1 (stereo not given in full) | > 100 µM | > 100 µM | > 100 µM | > 100 µM | > 100 µM | > 100 µM | > 100 µM | > 100 µM | > 100 µM | > 100 µM |
| CC(=O)c1sc2c(c1OC(=O)c1ccccc1)c(=O)n(-c1ccccc1)c(=S)n2-c1ccccc1 | > 100 µM | 5.83 µM | 69.1 µM | 34.2 µM | 45.9 µM | 28.9 µM | 27.2 µM | 5.65 µM | > 47.8 µM | > 86.9 µM |
| O=C(/C=C/c1ccc(O)c(O)c1)c1ccc(O)cc1O | 72.3 µM | > 71.7 µM | 75.6 µM | 28 µM | 42.4 µM | 29.1 µM | 19.8 µM | 25.8 µM | 43.9 µM | 60.3 µM |
| CSc1c(S(C)=O)c2ccccc2n1C (stereo not given) | > 100 µM | > 100 µM | > 100 µM | > 100 µM | > 100 µM | > 100 µM | > 100 µM | > 100 µM | > 100 µM | > 100 µM |
| CC(=O)c1ccc(Nc2nc3ccccc3c3occc23)cc1 | > 100 µM | 67.3 µM | > 100 µM | 27.8 µM | 36.2 µM | 9.69 µM | 47.7 µM | 53.4 µM | > 100 µM | 35.8 µM |
| CC(=O)Oc1ccc(C)c2c1[C@H]1CC[C@]3(C)[C@@H](OC(C)=O)CC[C@H]3[C@@H]1CC2 | 50.8 µM | 55.2 µM | 30.9 µM | 31.2 µM | 32 µM | 32.9 µM | 36.8 µM | 38 µM | 32.6 µM | 67.9 µM |
| CC(C)(C)c1cc(OCc2n[nH]c(=S)n2N)c(Cl)cc1OCc1n[nH]c(=S)n1N | > 100 µM | > 100 µM | > 100 µM | > 100 µM | > 100 µM | > 100 µM | > 100 µM | > 100 µM | > 100 µM | > 100 µM |
| O=C(N/N=C\c1ccc(Cl)cc1)Nc1cccc2ccccc12 | 27 µM | > 31.9 µM | > 100 µM | > 23.2 µM | 5.25 µM | 6.67 µM | > 21.3 µM | 35.7 µM | 5.64 µM | 17 µM |
| Cc1cnc2c(c1)C(=O)N(c1ccc(Br)cc1)S2(=O)=O | > 100 µM | > 100 µM | > 100 µM | > 100 µM | > 100 µM | > 100 µM | > 100 µM | > 100 µM | > 100 µM | > 100 µM |
| CC(C)(C)C1CCC2c3c([nH]c4ccccc34)C3C(=O)N(c4cc(Cl)ccc4Cl)C(=O)C3C2C1 (stereo not given) | > 100 µM | > 100 µM | > 100 µM | > 100 µM | > 100 µM | > 100 µM | > 100 µM | > 100 µM | > 100 µM | > 100 µM |
| CCOC(=O)C(CCSC)(CCSC)C(=O)OCC | > 100 µM | > 100 µM | > 100 µM | > 100 µM | > 100 µM | > 100 µM | > 100 µM | > 100 µM | > 100 µM | > 100 µM |
